Data on four compounds can be found in patent US4581360A, “Sparsomycin (Sc -Rs) derivative; pharmaceutical composition having anti-tumor activity” (priority 1982, dated 1986).

In one data set the test system is leukemia L 1210 cells. Description: in-vitro clonogenic L 1210 assay (inhibition of colony formation in soft agar). The class given is cell-based. Conditions: for IC50: Mus musculus, L1210, 72 h, read-out: ID50 (dose giving 50% inhibition of L 1210 colony formation). The protocol: The in-vitro clonogenic assay was effected in leukemia L 1210 cells in soft agar medium (0.3%). There is a good correlation between the activity in vitro and that in vivo of the medicaments investigated. On the basis of the findings in the in-vitro analysis, therefore, the in-vivo activity can be predicted with good results. In the analysis, the inhibition of the L 1210 colony formation by sparsomycin and derivates thereof is determined for various concentrations, and the dose giving 50% inhibition of the colony formation, as compared with non-treated control cells is calculated (ID50). The analysis is carried out as follows (variant of the method described in Cancer Chemother.Rep. (1967), 51, 451).
From a suspension culture one hundred L 1210 cells are plated out in 35 mm culture dishes (Falcon) containing 1 ml soft agar culture medium and the compound to be investigated in suitable concentrations. The soft agar culture medium consists of Dulbecco's medium supplemented with 20% horse serum, 60 μmole 2-mercaptoethanol, 20 mg/ml L-asparagine, 75 mg/ml DEAE dextran (molecular weight 2×10^6) and 0.3% bacto agar (Difco). The culture dishes were incubated at 37° C. in an atmosphere of 10% CO2 in humidified air for 3 days. After this period of continuous exposure to the medicament the colonies were counted and dose-effect curves made. From these curves, the medicament dose is calculated which causes 50% inhibition of the colony formation as compared with non-treated control cells.

The next data set can be described thus: solubility in water. The class given is physicochemical. As for the experimental part:
The n-octylsparsomycin is poorly dissolved in water (about 0.2 mg/ml water), whereas benzylsparsomycin is dissolved well in water (1.5 mg/ml water). As a consequence, the use of the latter compound is highly attractive.

For data set [1], the system named is ribosomes from E. coli (protein synthesis). Description: inhibition of polyphenylalanine synthesis, cell-free system. The class given is biochemical. As to conditions: 30 min, read-out: ED50 E. coli polyphe. The protocol:
The activity of the novel compounds was also measured in two cell-free systems, namely Saccharomyces cerevisiae and E. coli, a prokaryotic and a eukaryotic system, respectively.
(§1) Polyphenylalanine synthesis. The reaction mixture was slightly different for E. coli and for yeast.
E. coli. […] (^3 H)phenylalanine 30 μM (about 60 cpm/pmol) was added to start the reaction. Incubation was at 37° C. for 30 min. The reaction was stopped by addition of 1 ml of 10% TCA and the samples filtered through glass fiber. The filters were washed with 10 ml of cold 10% TCA, dried and counted for radioactivity.

In the next data set the test system is mouse. Description: acute toxicity (LDx values). As to conditions: i.p. The class given is in vivo. An excerpt: (§2) The acute LDx values (lethal dose for x% of the animals) are shown below.
The nature of data set [2]: acute toxicity (LDx values). The class given is in vivo. Conditions: in vivo, mouse.
Description: as §2

The nature of another data set: pharmacokinetics in dog. Conditions: iv.
In data set [3] the test system is ribosomes from Saccharomyces cerevisiae (protein synthesis). The data set can be described thus: inhibition of polyphenylalanine synthesis, cell-free system. The class given is biochemical. As to conditions: 30 min, read-out: ED50 s.c. polyphe. The protocol:
(§3) The activity of the novel compounds was also measured in two cell-free systems, namely Saccharomyces cerevisiae and E. coli, a […]. The inhibition of the protein biosynthesis was measured, and this in two ways, by means of both the fragment reaction (R. E. Monro, Methods Enzymol. 1971, 20, 472) and the inhibition of the polyphenylalanine synthesis (N. W. Nirenberg, H. Matthei, Proc.Natl. Acad. Sci. USA 1961, 47, 1588). The concentration of sparsomycin or an analog giving 50% inhibition of the protein synthesis relative to the control is given as ED50.
as §1
E. coli. The reaction mixture (50 μl) contained 65 mM Tris-HCl pH 7.6, 15 mM MgCl2, 90 mM KCl, 15 mM β-mercaptoethanol, 1 mM GTP, 10 mM ATP, 0.2 mg/ml of polyuridylic acid, 1.5 mg/ml of tRNA, 10 μM of ribosomes, 2.5 mg/ml of phosphoenolpyruvate, 20 μg/ml of pyruvate kinase, the required concentration of sparsomycin analog, as indicated in the text, and 5 μl of supernatant fraction S-100. (^3 H)phenylalanine 30 μM (about 60 cpm/pmol) was added to start the reaction. Incubation was at 37° C. for 30 min. The reaction was stopped by addition of 1 ml of 10% TCA and the samples filtered through glass fiber. The filters were washed with 10 ml of cold 10% TCA, dried and counted for radioactivity.
Yeast. The test was carried out as indicated above for E. Coli but replacing the phosphoenol pyruvate and pyruvate kinase by creatine phosphokinase (50 μg/ml) and creatine phosphate (20 mM). The incubation was performed at 30° C. for 30 min. and the samples processed as above.
In these conditions the control samples polymerized 3 to […] 14 molecules of phenylalanine per ribosome in the case of yeast and E. coli respectively. […]

For the next data set, the system named is whole reticulocytes. As to conditions: Biochem.Biophys. Acta (1966), 119, 109; cited from earlier work.
The conditions of data set [4]: clinical tests (Cancer.Chemother.Rep. (1969), 43, 29); cited from earlier work.
Data set [5] deals with ribosomes from Saccharomyces cerevisiae (peptidyl transferase). Description: fragment reaction, cell-free system. As to conditions: 30% ethanol in water, 30 min, read-out: ED50 s.c. fragment reaction. The class given is biochemical. The protocol:
as §3
(§4) Fragment reaction. The reaction described originally by Monro (see reference in the text) was carried out in 150 μl of 33 mM Tris-HCl pH 7.4, 270 mM KCl, 13 mM magnesium acetate containing 1 mg/ml of ribosomes, 2.10^-3 M puromycin, 1 pmol of (^3 H)Leu-ACCAC(U), the required concentration of sparsomycin analog as indicated in the text and 33% ethanol. The reaction was initiated by the addition of the alcohol and allowed to proceed at 0° C. for 30 min. and then stopped by the addition of 100 μl of 0.3M sodium acetate pH 5.5 saturated with MgSO4. The samples were extracted with 1.5 ml of ethyl acetate and 1 ml of the organic phase was checked for radioactivity.
(§5) The 3' terminal pentanucleotide (^3 H)Leu-ACCAC(U) was prepared from (^3 H)Leu-tRNA by ribonuclease T1 as described (Monro, as above).
(§6) Ribosomes and supernatant fractions from E. coli and Saccharomyces cerevisiae were prepared according to standard procedures (Staehelin, T. and Maglott D. R. (1971). Methods Enzymol. 20, 449-456; Sanchez-Madrid, F., Reyes, R., Conde, P. and Ballesta, J. P. G. (1979) Eur. J. Biochem. 98, 409-416).

The test system of data set [6] is ribosomes from E. coli (peptidyl transferase). Description: fragment reaction, cell-free system. The class given is biochemical. Conditions: 30% ethanol in water, 30 min, read-out: ED50 E. coli fragment reaction. As for the experimental part: as §3, §4, §5, §6
[7] abbreviates: L 1210 cells, soft agar 0.3%, 3 days continuous exposure.

SMILES strings stand for the structures. In brackets after ≈: the same amount, converted by molar mass. Where two headings read alike, the source gives them in different places. A value given as a limit tells only on which side of the number the result lay.

The term solubility denotes the dissolved amount per volume that the medium holds. For `Cc1[nH]c(=O)[nH]c(=O)c1C=CC(=O)NC(CO)C[S+]([O-])CSCc1ccccc1` (stereo not shown) [benzylsparsomycin, Benzylsparsomycin (Sc -Rs)], the results for the IC50 (with leukemia L 1210 cells; in [1]) were 0.048 µg/mL (≈ 0.11 µM) and 0.8 µM, respectively. Also, the solubility came to 1500 µg/mL (≈ 3430 µM) in “solubility in water” (H2O, pH=7, read-out: Solubility in H2O (pH=7)) and 1500 µg/mL (≈ 3430 µM) in “solubility in water” (read-out: solubility in water).
For orientation: LD50 means the dose expected to kill half of the subjects tested. What is called AUC is the area under the concentration-time curve, a measure of exposure. Low values mean less exposure, high ones more exposure. As usually defined, the half-life is how long it takes for the measured level to halve. The compound `CSC[S@+]([O-])C[C@H](CO)NC(=O)/C=C/c1c(C)[nH]c(=O)[nH]c1=O` [sparsomycin, Sparsomycin (Sc -Rs)] displayed an LD10 in the data set with mouse of 8.0 mg per kg mouse. Besides, the LD50 in data set [2] (ip) amounted to 14 mg/kg. For the same compound, the AUC stood at 1300 ng·h/mL in the data set “pharmacokinetics in dog” (in vivo, 0.7 mg/kg) and 10800 ng·h/mL in “pharmacokinetics in dog” (in vivo, 1.48 mg/kg). In addition, the half-life is 1.1 h in the data set “pharmacokinetics in dog” (in vivo, 0.7 mg/kg) and 2.3 h in the data set “pharmacokinetics in dog” (in vivo, 1.48 mg/kg). Besides, the dose excreted came out at 24% in the data set “pharmacokinetics in dog” (in vivo, 0.7 mg/kg, Recovery in urine, i.v. bolus); 2% in “pharmacokinetics in dog” (in vivo, 1.48 mg/kg, Recovery in gall liquid, i.v. bolus); 55% in “pharmacokinetics in dog” (in vivo, 1.48 mg/kg, Recovery in urine, i.v. bolus). Further, the IC50 in [3] turned out to be 4 µM; with leukemia L 1210 cells, 0.15 µg/mL (≈ 0.415 µM); in data set [1], 9 µM; in data set [5], 15 µM; in [6], 6 µM. For the same compound, the “activity against whole reticulocytes” value in the data set on whole reticulocytes is “not active”. Further, the “toxicity in clinical tests” value in data set [4] was “eye toxicity”.
With `CSC[S@+]([O-])C[C@H](COC(C)=O)NC(=O)/C=C/c1c(C)[nH]c(=O)[nH]c1=O` [O--acetylsparsomycin, O-acetyl-sparsomycin (Sc -Rs)], the IC50 in data set [3] was 3 µM; in the data set on leukemia L 1210 cells (setting [7]), 0.15 µg/mL (≈ 0.372 µM); in data set [1] it was 8 µM; in [5] it was 50 µM; in data set [6], 15 µM.
In turn, `CCCCCCCCSC[S@+]([O-])C[C@H](CO)NC(=O)/C=C/c1c(C)[nH]c(=O)[nH]c1=O` [n-octylsparsomycin, n-octyl-sparsomycin (Sc -Rs)] gave an LD50 in data set [2] (iv) of over 30 mg/kg. The dose excreted in the data set “pharmacokinetics in dog” (bile, 0.7 mg/kg) came out at 3.4%; in the data set “pharmacokinetics in dog” (urine, 0.7 mg/kg), 0%. Besides, the AUC in “pharmacokinetics in dog” (in vivo, 0.7 mg/kg) was determined as 1100 ng·h/mL; in “pharmacokinetics in dog” (in vivo, 0.9 mg/kg), 1200 ng·h/mL. Also, the half-life in the data set “pharmacokinetics in dog” (in vivo, 0.7 mg/kg) is 1.1 h; in “pharmacokinetics in dog” (in vivo, 0.9 mg/kg) it was 1.6 h. For the same compound, the IC50 worked out at 0.35 µM in data set [3]; 0.047 µg/mL (≈ 0.102 µM) in the data set on leukemia L 1210 cells (setting [7]); 1.5 µM in data set [1]; 180 µM in data set [5]; 80 µM in data set [6]. Moreover, in the data set with leukemia L 1210 cells (L 1210 colony formation, concentrations in ng/ml), the “activity relative to sparsomycin proper” value is listed as “approximately 3”. Moreover, the “activity relative to sparsomycin, concentrations expressed in μmole/ml” value in the data set on leukemia L 1210 cells (L 1210 colony formation, concentrations in μmole/ml) is reported as “approximately four times higher”. Moreover, in “solubility in water” (read-out: solubility in water), the solubility is about 200 µg/mL (≈ 435 µM).
